Reference: publication PMC9529094, “Identification of natural cytochalasins as leads for neglected tropical diseases drug discovery” (PLoS ONE, 2022)
Converted amounts (≈) assume the structure as drawn. Like-named read-outs stand apart in the source and are kept apart here.

Tests used:
physchem = assay type: physicochemical; settings: aqueous buffer, kinetic from dmso stock
Procedure: The plate was sealed and shaken for 24 hours (200 rpm, r.t.). The precipitates on the incubation plate were removed by centrifugation (15 min., 3000 rpm, r.t.). The supernatant fractions were quantified by LC-MS/MS (liquid chromatography-tandem mass spectrometry) Prominence UFLC (Shimadzu Corporation, Kyoto, Japan) and interface with an LCMS-8045 triple quadrupole mass spectrometer (Shimadzu Corporation, Kyoto, Japan) with an electrospray ionization source (ESI). From a 10 mM standard solution, an intermediate standard dilution of 0.5 mM in a 1:1 acetonitrile:water solution was prepared. Calibration curves were prepared for each cytochalasin by diluting the intermediate standard several times to reach the desired concentrations of 50, 40, 20, 2, and 1 μM. The resulting equation for the calibration curve (y = mx + b) was used to calculate the experimental concentration values for the cytochalasins. The chromatogram for analysis was obtained on a Supelco Ascentis express C18 column (3 cm x 2.1 mm, 5 μM). The mobile phases consisted of water + 0.05% formic acid (A) and acetonitrile + 0.05% formic acid (B). The mobile phase was eluted in binary gradient mode, and the gradient was as follows: 0 min, 98% A; 1.2 mins. 2% A; 2.0 mins: 2% A; and re-equilibration time: 0.6 min., 98% A. The run time was 2 minutes, the sample injection volume was 5 μL, and the flow rate was 0.6 mL/min.

[1] = test system: intracellular L. infantum amastigotes; assay: microbe, parasite or virus in culture; assay type: cell-based, Leishmania infantum; settings: for IC50: intracellular amastigotes in THP-1 macrophages, 120 h, read-out: L. infantum IC50 (μM ± SD); for SI^2 (CC50 THP-1/IC50 L. infantum) / SI^4 (CC50 HepG2/IC50 L. infantum): selectivity index
Procedure: The epimastigote forms of the T. cruzi Tulahuen strain, which expresses the E. coli β-galactosidase gene lacZ [11], were grown in liver infusion tryptone (LIT) supplemented with 10% FCS (Cultilab) and 1% pen/strep (Sigma–Aldrich) at 28°C. Metacyclogenesis from epimastigotes to trypomastigotes was induced by the incubation of the epimastigotes in Grace’s insect medium (Sigma-Aldrich, 28°C) every 5 days. After 5 days, the trypomastigote forms were used to infect the HFF-1 cells. The promastigote forms of L. infantum were maintained in Schneider’s insect medium (Sigma-Aldrich) supplemented with 10% FCS (Cultilab) and 1% pen/strep (Sigma-Aldrich) at 28°C and subcultured every 6 or 7 days.
In the intracellular amastigote assay, THP-1 cells were seeded at 2x10^4/well (RPMI-1640, 100 μL) with phorbol 12-myristate 13-acetate (PMA) at 20 ng/mL for differentiation into macrophages. After incubation for 72 h (5% CO2, 37°C), the medium was aspirated, and late-stage L. infantum promastigotes were added (2x10^5/well, 100 μL). Following 24 h of incubation, the medium was aspirated to clear extracellular parasites, and the compounds were added in serial dilutions (2-fold) to final concentrations of 64–0.12 μM. The plates included negative controls (100% growth) and MIL (64–0.12 μM) as a positive control. After 120 h of incubation, the medium was removed, and the cells were fixed in methanol and stained with Giemsa. The average number of intracellular amastigotes per THP-1-cell was determined using an inverted microscope and a cell counter. Growth inhibition is expressed as a percentage of the average number of amastigotes per macrophage in the negative control wells. The IC50 values were obtained using GraphPad Prism version 8.0.
The analyses were performed using GraphPad Prism version 8.0 (GraphPad Software, San Diego, CA, USA). Both the IC50 and CC50 values were calculated by adjusting the sigmoid dose-response curves, and the selectivity index (SI) values were determined by CC50/IC50 [16]. Statistical analyses were performed using one-way ANOVA followed by Dunnett’s multiple comparison test.

[2] = test system: L. infantum promastigotes; assay: Leishmanicidal assay using L. infantum promastigotes (resazurin); assay type: cell-based, Leishmania infantum; settings: 20–2.5 μM, 24 h, Fig 2C
Procedure: Promastigotes of L. infantum (1x10^6 parasites/well) were distributed in 96-well plates, and the test compounds (cytochalasins A-D) were added at concentrations of 20–2.5 μM. The plates were incubated under the same conditions as previously described for 24 h. The leishmanicidal activity was determined by adding 20 μL of resazurin (Sigma-Aldrich), and the plates were incubated for 4 h. The absorbance was measured at 536 and 588 nm in an automated SpectraMax Gemini microplate reader, and the data were analysed using GraphPad Prism version 8.0 for the CC50 value calculation. The percentage of nonviable parasites was determined and compared to the negative control wells.

[3] = PBS pH 2.0, 24 h, read-out: Kinetic Solubility pH 2.0 (LogS) (converted)
[4] = PBS pH 7.4, 24 h, read-out: Kinetic Solubility pH 7.4 (LogS) (converted)
[5] = Leishmania infantum, THP-1, 120 h

SMILES	solubility kinetic (physchem; [3])	solubility kinetic (physchem; [4])	IC50 [1, 5]	SI^2 (CC50 THP-1/IC50 L. infantum) [1]	SI^4 (CC50 HepG2/IC50 L. infantum) [1]	toxicity to L. infantum promastigote parasites [2]	IC50 [1]
CC(=O)OC1C=CC(C)(O)C(=O)C(C)CC=CC2C(O)C(C)=C(C)C3C(Cc4ccccc4)NC(=O)C123 (centres unmarked) [Cytochalasin C]	17 µM (≈ 8.62 µg/mL)	46.8 µM (≈ 23.7 µg/mL)	23.2 ± 4.9 µM	3.65	0.96	toxic	–
C=C1[C@@H](C)[C@H]2[C@H](Cc3ccccc3)NC(=O)[C@]23OC(=O)/C=C/[C@H](O)CCC[C@@H](C)C/C=C/[C@H]3[C@@H]1O [Cytochalasin B]	77.6 µM (≈ 37.2 µg/mL)	77.6 µM (≈ 37.2 µg/mL)	22 to 23 µM	4.57	1.93	–	23.9 ± 3.02 µM
C=C1[C@@H](C)[C@H]2[C@H](Cc3ccccc3)NC(=O)[C@]23[C@H](OC(C)=O)/C=C/[C@@](C)(O)C(=O)[C@@H](C)C/C=C/[C@H]3[C@@H]1O [Cytochalasin D]	42.7 µM (≈ 21.7 µg/mL)	46.8 µM (≈ 23.7 µg/mL)	22.5 ± 0.97 µM	5.42	5.46	–	–
C=C1[C@@H](C)[C@H]2[C@H](Cc3ccccc3)NC(=O)[C@]23OC(=O)/C=C/C(=O)CCC[C@@H](C)C/C=C/[C@H]3[C@@H]1O [Cytochalasin A]	39.8 µM (≈ 19 µg/mL)	69.2 µM (≈ 33 µg/mL)	2.76 ± 1.17 µM	6.17	7.65	toxic	–
